Test results as given in patent US20220106564A1, “COMPOSITION AND KIT FOR DIFFERENTIATION OF STEM CELLS INTO NEURAL CREST STEM CELLS, INCLUDING INHIBITOR OF TGF-BETA I RECEPTOR AND BMP INHIBITOR, AND METHOD USING SAME” (CHA UNIVERSITY INDUSTRY-ACADEMIC COOPERATION FOUNDATION, priority 2019, published 2022).

Columns and labels:
[1] = tested on: H9 human embryonic stem cells (hESCs); experiment: Flow cytometry for P75 (neural crest stem cell marker) in cultured cells; type: cell-based; settings: suspension about 3 days + adherent about 4 days (FIG. 3E)
Protocol: The obtained colonies were finely chopped and suspension-cultured under conditions of 37° C. and 5% CO2 in an EB medium containing 10 μM of SB431542 (GlaxoSmithKline: GSK) as a TGF-β I receptor inhibitor and 0.5 μM to 1 μM of dorsomorphin homolog 1 (DMH1) (Tocris Bioscience, USA) or dorsomorphin (Tocris Bioscience, […]). EB medium contained DMEM/F12 (Life Technologies), 20%(v/v) Knockout serum replacement (KSR, Invitrogen), lx non-essential amino acids (Invitrogen), 0.1 mM 13-mercaptoethanol (Invitrogen), and lx penicillin/streptomycin (Invitrogen). As a negative control, dimethyl sulfoxide (DMSO) (Sigma-Aldrich) was used instead of the drug. […] To analyze a proportion of cells expressing P75 protein which is a neural crest stem cell (NCSC) marker, or SOX1 which is a neural progenitor cell (NPC) marker, immunostaining was performed using phycoerythrin (PE)-labeled anti-P75 monoclonal antibody (1:50 dilution) (Miltenyi Biotec), and phycoerythrin (PE)-labeled anti-Sox1 monoclonal antibody (1:100 dilution) (BD Biosciences). The immunostained cells were subjected to flow cytometry using a BD FACSCalibur flow cytometer (BD Biosciences, Sparks, Md., USA). The results of flow cytometry are shown in FIGS. 2A and 2B (FIG. 2A: a graph of P75 flow cytometry, FIG. 2B: a graph of SOX1 flow cytometry). Cells suspension-cultured for about 3 days and adherent-cultured for about 4 days were subjected to P75 flow cytometry, as described in Example 1.2, and the results of flow cytometry are shown in FIG. 3E (upper: SB431542 and DMH1, lower: SB431542 and dorsomorphin).

[2] = tested on: H9 human embryonic stem cells (hESCs); experiment: Embryoid body count after suspension culture of H9 hESCs; type: cell-based; settings: increasing concentrations of DMH1 in EB medium with 10 μM SB431542; suspension culture about 4 days; p<0.001
Protocol: Colonies obtained by culturing H9 human embryonic stem cells (hESCs) (WiCell Research Institute, Inc. Madison, Wis., U.S.A.) in a culture medium were dissociated into single cells using accutase (Life Technologies). The cells dissociated into single cells were seeded in a culture plate coated with a protein such as vitronectin (VTN) (vitronectin XF, STEMCELL Technologies), […]-521, Thermo Fisher Scientific Inc., Waltham, Mass., USA), fibronectin (Thermo Fisher Scientific Inc.), or MatrigelTM (StemCell Technologies, Inc.). An embryonic stem cell (ESC) culture medium was added to the seeded cells to perform undifferentiation culture. As the ESC culture medium, Essential 8 (E8) medium (StemCell Technologies Inc.), TeSR2 medium (StemCell Technologies Inc), StemMACS (Miltenyi Biotec, Bergisch Gladbach, Germany), etc. was used. […] The number of round-shaped embryoid bodies were counted, and the number of embryoid bodies per unit area (embryoid body/cm^2) according to DMH1 concentrations is shown in FIG. 1D (***: p<0.001).

c1cc(-c2cnn3cc(-c4ccc(OCCN5CCCCC5)cc4)cnc23)ccn1 [dorsomorphin, 6-[4-[2-(1-Piperidinyl)pethoxy]phenyl]-3-(4-pyridinyl)-pyrazolo[1,5-a]pyrimidine]
proportion of P75-expressing cells ([1]; 0.5 μM BMP inhibitor in EB medium containing 10 μM SB431542 and dorsomorphin): ≥ 83.2%

CC(C)Oc1ccc(-c2cnc3c(-c4ccnc5ccccc45)cnn3c2)cc1 [DMH1, 4-[6-[4-(1-Methylethoxy)phenyl]pyrazolo[1,5-a]pyrimidin-3-yl]-quinoline]
proportion of P75-expressing cells ([1]; 0.5 μM to 1 μM DMH1 + 10 μM SB431542): ≥ 69.8% | proportion of P75-expressing cells ([1]; 2.5 μM DMH1 + 10 μM SB431542): about 28.9% | number of embryoid bodies per unit area [2]: significantly decreased
